Experiments:
Type in all cases: in vivo
[1] = test system: giant foxtail (Setaria faberii); experiment: Test A postemergence; settings: Setaria faberi, post-emergence, 240 h, Postemergence, read-out: Foxtail, Giant plant response rating (0 to 100 scale)
How it was run: (§1)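 Each rating is a visual injury score from 0 to 100 given about 10 d after treatment, judged against untreated controls kept alongside in the greenhouse. In loam soil–sand blend, seeds got a preemergence directed soil spray, while postemergence plants were 2 to 10 cm tall at spraying.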

[2] = test system: pigweed (Amaranthus retroflexus); experiment: Test A postemergence; settings: Amaranthus retroflexus, post-emergence, 240 h, Postemergence, read-out: Pigweed plant response rating (0 to 100 scale)
How it was run: as §1

[3] = test system: Galium (catchweed bedstraw, Galium aparine); experiment: Test A postemergence; settings: Galium, post-emergence, 240 h, Postemergence, read-out: Galium plant response rating (0 to 100 scale)
How it was run: as §1

[4] = test system: blackgrass (Alopecurus myosuroides); experiment: Test A postemergence; settings: Alopecurus myosuroides, post-emergence, 240 h, Postemergence, read-out: Blackgrass plant response rating (0 to 100 scale)
How it was run: as §1

Kochia (Kochia scoparia) [5] = experiment: Test A postemergence; settings: Bassia scoparia, post-emergence, 240 h, Postemergence, read-out: Kochia plant response rating (0 to 100 scale)
How it was run: as §1

corn (Zea mays) = experiment: Test A postemergence; settings: Zea mays, post-emergence, 240 h, Postemergence, read-out: Corn plant response rating (0 to 100 scale)
How it was run: as §1

[6] = test system: wheat (Triticum aestivum); experiment: Test A postemergence; settings: Triticum aestivum, post-emergence, 240 h, Postemergence, read-out: Wheat plant response rating (0 to 100 scale)
How it was run: as §1

[7] = test system: ragweed (common ragweed, Ambrosia elatior); experiment: Test A postemergence; settings: Ambrosia artemisiifolia, post-emergence, 240 h, Postemergence, read-out: Ragweed plant response rating (0 to 100 scale)
How it was run: as §1

[8] = test system: barnyardgrass (Echinochloa crus-galli); experiment: Test A postemergence; settings: Echinochloa crus-galli, post-emergence, 240 h, Postemergence
How it was run: as §1

[9] = test system: ryegrass, Italian (Italian ryegrass, Lolium multiflorum); experiment: Test A postemergence; settings: Lolium multiflorum, post-emergence, 240 h, Postemergence, read-out: Ryegrass, Italian plant response rating (0 to 100 scale)
How it was run: as §1

[10] = test system: sedge, umbrella (small-flower umbrella sedge, Cyperus difformis); experiment: Test B flooded paddy test; settings: Cyperus difformis, 360 h, Flood, 250 g ai/ha; visually evaluated after 13 to 15 d; read-out: Plant response rating, Sedge, Umbrella (0 to 100 scale where 0 is no effect and 100 is complete control)
How it was run: (§2)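 Response scored visually against untreated controls, 0 = no effect and 100 = complete control, 13–15 d after treatment in the greenhouse. Compounds added to paddy water held 3 cm above soil surface. Treatment given at 2-leaf stage.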

rice (Oryra sativa) = experiment: Test B flooded paddy test; settings: Oryza sativa, 360 h, Flood, 250 g ai/ha; visually evaluated after 13 to 15 d; read-out: Plant response rating, Rice (0 to 100 scale where 0 is no effect and 100 is complete control)
How it was run: as §2

[11] = test system: barnyardgrass (Echinochloa crus-galli); experiment: Test B flooded paddy test; settings: Echinochloa crus-galli, 360 h, Flood, 250 g ai/ha; visually evaluated after 13 to 15 d; read-out: Plant response rating, Barnyardgrass (0 to 100 scale where 0 is no effect and 100 is complete control)
How it was run: as §2

[12] = test system: ducksalad (Heteranthera limosa); experiment: Test B flooded paddy test; settings: Heteranthera limosa, 360 h, Flood, 250 g ai/ha; visually evaluated after 13 to 15 d; read-out: Plant response rating, Ducksalad (0 to 100 scale where 0 is no effect and 100 is complete control)
How it was run: as §2

[13] = test system: giant foxtail (Setaria faberii); experiment: Test A preemergence; settings: Setaria faberi, pre-emergence, 240 h, Preemergence
How it was run: as §1

[14] = test system: pigweed (Amaranthus retroflexus); experiment: Test A preemergence; settings: Amaranthus retroflexus, pre-emergence, 240 h, Preemergence
Kochia (Kochia scoparia) [15] = experiment: Test A preemergence; settings: Bassia scoparia, pre-emergence, 240 h, Preemergence
How it was run: as §1

[16] = test system: ragweed (common ragweed, Ambrosia elatior); experiment: Test A preemergence; settings: Ambrosia artemisiifolia, pre-emergence, 240 h, Preemergence
How it was run: as §1

[17] = test system: barnyardgrass (Echinochloa crus-galli); experiment: Test A preemergence; settings: Echinochloa crus-galli, pre-emergence, 240 h, Preemergence
How it was run: as §1

[18] = test system: ryegrass, Italian (Italian ryegrass, Lolium multiflorum); experiment: Test A preemergence; settings: Lolium multiflorum, pre-emergence, 240 h, Preemergence
How it was run: as §1

[19] = 125 g ai/ha, visual rating about 10 d after treatment
[20] = 31 g ai/ha, 0 is no effect, 100 is complete control

Q: For `CN1C[C@H](c2ccc3c(c2)OC(F)(F)O3)[C@@H](C(=O)Nc2cnccc2C(F)(F)F)C1=O` [Compound 1354], which pest or weed control at 125 g/ha [1, 19] is on record?
A: 60%

Q: And the pest or weed control at 31 g/ha [1, 20]?
A: 0%

Q: And the pest or weed control at 125 g/ha [2, 19]?
A: 0%

Q: What about the pest or weed control at 31 g/ha [2, 20] of the same compound?
A: 0%

Q: What about the pest or weed control at 125 g/ha [3, 19] of the same compound?
A: 40%

Q: What about the pest or weed control at 31 g/ha [3, 20] of the same compound?
A: 20%

Q: What about the pest or weed control at 125 g/ha [4, 19] of the same compound?
A: 0%

Q: What about the pest or weed control at 31 g/ha [4, 20] of the same compound?
A: 0%

Q: And the pest or weed control at 125 g/ha (Kochia (Kochia scoparia) [5]; [19])?
A: 20%

Q: And the pest or weed control at 31 g/ha (Kochia (Kochia scoparia) [5]; [20])?
A: 0%

Q: What about the plant injury at 125 g/ha (corn (Zea mays); [19]) of the same compound?
A: 0%

Q: And the plant injury at 31 g/ha (corn (Zea mays); [20])?
A: 0%

Q: And the plant injury at 125 g/ha [6, 19]?
A: 0%

Q: And the plant injury at 31 g/ha [6, 20]?
A: 0%

Q: What about the pest or weed control at 125 g/ha [7, 19] of the same compound?
A: 0%

Q: What about the pest or weed control at 31 g/ha [7, 20] of the same compound?
A: 0%

Q: And the pest or weed control at 125 g/ha ([8]; 125 g ai/ha, visual rating about 10 d after treatment, read-out: Barnyardgrass plant response rating (0 to 100 scale, 0 no effect, 100 complete control))?
A: 20%

Q: And the pest or weed control at 31 g/ha ([8]; 31 g ai/ha, 0 is no effect, 100 is complete control, read-out: Barnyardgrass plant response rating (0 to 100 scale))?
A: 0%

Q: What about the pest or weed control at 125 g/ha [9, 19] of the same compound?
A: 0%

Q: And the pest or weed control at 31 g/ha [9, 20]?
A: 0%

Q: And the pest or weed control at 250 g/ha [10]?
A: 0%

Q: What about the pest or weed control at 250 g/ha (rice (Oryra sativa)) of the same compound?
A: 0%

Q: What about the pest or weed control at 250 g/ha [11] of the same compound?
A: 0%

Q: And the pest or weed control at 250 g/ha [12]?
A: 0%

Q: And the pest or weed control at 31 g/ha ([13]; 31 g ai/ha, 0 to 100 scale where 0 is no effect and 100 is complete control, read-out: Foxtail, Giant plant response rating)?
A: 30%

Q: What about the pest or weed control at 125 g/ha ([13]; 125 g ai/ha, 0 to 100 scale (0 no effect, 100 complete control), read-out: Plant response rating, Foxtail, Giant) of the same compound?
A: 100%

Q: And the pest or weed control at 31 g/ha ([14]; 31 g ai/ha, 0 to 100 scale where 0 is no effect and 100 is complete control, read-out: Pigweed plant response rating)?
A: 0%

Q: What about the pest or weed control at 125 g/ha ([14]; 125 g ai/ha, 0 to 100 scale (0 no effect, 100 complete control), read-out: Plant response rating, Pigweed) of the same compound?
A: 20%

Q: What about the pest or weed control at 31 g/ha (Kochia (Kochia scoparia) [15]; 31 g ai/ha, 0 to 100 scale where 0 is no effect and 100 is complete control, read-out: Kochia plant response rating) of the same compound?
A: 0%

Q: What about the pest or weed control at 125 g/ha (Kochia (Kochia scoparia) [15]; 125 g ai/ha, 0 to 100 scale (0 no effect, 100 complete control), read-out: Plant response rating, Kochia) of the same compound?
A: 20%

Q: And the pest or weed control at 31 g/ha ([16]; 31 g ai/ha, 0 to 100 scale where 0 is no effect and 100 is complete control, read-out: Ragweed plant response rating)?
A: 20%

Q: And the pest or weed control at 125 g/ha ([16]; 125 g ai/ha, 0 to 100 scale (0 no effect, 100 complete control), read-out: Plant response rating, Ragweed)?
A: 0%

Q: And the pest or weed control at 31 g/ha ([17]; 31 g ai/ha, 0 to 100 scale where 0 is no effect and 100 is complete control, read-out: Barnyardgrass plant response rating)?
A: 0%

Q: What about the pest or weed control at 125 g/ha ([17]; 125 g ai/ha, 0 to 100 scale (0 no effect, 100 complete control), read-out: Plant response rating, Barnyardgrass) of the same compound?
A: 80%

Q: And the pest or weed control at 31 g/ha ([18]; 31 g ai/ha, 0 to 100 scale where 0 is no effect and 100 is complete control, read-out: Ryegrass, Italian plant response rating)?
A: 0%

Q: What about the pest or weed control at 125 g/ha ([18]; 125 g ai/ha, 0 to 100 scale (0 no effect, 100 complete control), read-out: Plant response rating, Ryegrass, Italian) of the same compound?
A: 20%
